The subject of test [1] is Trypanosoma brucei brucei. The test is described as follows: Growth inhibition of T. b. brucei. It counts as cell-based. To be noted: mean ± standard deviation, n ≥ 2. As to the method: (§1) G. lamblia trophozoites (WBC6) were seeded into 96-well-plates in 0.2 mL Keister-medium containing 10^3 trophozoites per well in the presence of the compounds dissolved in dimethyl sulfoxide (DMSO, final concentration 0.25%) or with DMSO as a solvent control and incubated for 72 h at 37 °C in an anaerobic chamber (80% N2, 10% H2, 10% CO2). Then, plates were centrifuged (2 min, 1000 rpm), medium was removed, and cells were washed once with PBS containing 1 g/L glucose. Then, PBS-glucose containing 10 mg/L resazurin was added, and plates were incubated for up to 5 h at 37 °C. Fluorescence reading (ex 530 nm/em 590 nm) was performed at various time points, and the linear increase of fluorescence was used as a marker for cell viability. IC50 values were calculated using the logit-log algorithm and are given as mean values with 95%-confidence intervals ([Müller et al., 2020]; [Müller and Hemphill, 2013]; [Müller and Müller, 2019]). The assays for growth inhibition of T. b. brucei, T. cruzi, L. infantum, P. falciparum and MRC-5 (human lung fibroblasts MRC-5SV40) were previously described ([Blaazer et al., 2014]). PDE activity was determined exactly as described ([de Heuvel et al., 2021]; [Kunz et al., 2005], [2017b]). All assays were carried out in triplicates and no more than 20% substrate was hydrolyzed in all reactions. Compounds were dissolved in DMSO and the final DMSO concentration was 1% in all reaction mixes. Control reactions with DMSO alone were always included. Data were analyzed using the GraphPad Prism software package (v7.0, GraphPad, San Diego).

For test [2], the system named is MRC-5 (human lung fibroblasts MRC-5SV40). The test is described as follows: Cytotoxicity on MRC-5 cells. The format is cell-based. As to the method:
as §1, with “[…]-medium” for “Keister-medium”, “([[…],” for “([Müller et al., 2020]; [Müller and Hemphill, 2013]; [Müller and Müller,”

Test [3] has as its system Trypanosoma cruzi. The test is described as follows: Growth inhibition of T. cruzi. It counts as cell-based. To be noted: mean ± standard deviation, n ≥ 2. The method, then:
as §1

For test [4], the system named is G. lamblia trophozoites (WBC6). The test is described as follows: Growth inhibition of G. lamblia trophozoites (WBC6), resazurin viability read-out. The format is cell-based, Giardia lamblia. The conditions noted are these: for IC50: Giardia duodenalis, WBC6 trophozoites, 72 h, anaerobic, mean ± standard error (95% CI, logit-log), quadruplicates, read-out: IC50 (nM) G.l. The method, then: as §1
Figure S67. Representative drug susceptibility curves of G. lamblia WBC6. Trophozoites were grown anaerobically in the presence of various concentrations of 17 (red), 29 (blue) and the reference compound metronidazole (MET, black). After 72 h, growth of cells was monitored by a cell viability assay based on the reduction of resazurin to a pink fluorescent product. Measured fluorescence units were normalized to the DMSO control. Data points and error bars represent mean and standard error of 4 replicates.

The subject of test [5] is Plasmodium falciparum. Kind of test: Growth inhibition of P. falciparum. It counts as cell-based. The method, then:
as §1, with “[…]-medium” for “Keister-medium”, “([[…],” for “([Müller et al., 2020]; [Müller and Hemphill, 2013]; [Müller and Müller,”

For test [6], the system named is Leishmania infantum. The test is described as follows: Growth inhibition of L. infantum. The format is cell-based. To be noted: mean ± standard deviation, n ≥ 2. As to the method:
as §1

The mark [7] stands for this setting: MRC5, mean ± standard deviation, n ≥ 2, read-out: IC50 (nM) MRC-5.
[8] abbreviates: mean ± standard deviation, n ≥ 2, read-out: IC50 (µM) P.f.
Where [9] appears, read: MRC5, Table S1, mean ± standard deviation, n ≥ 2, read-out: IC50 (µM) MRC-5.

SMILES strings stand for the structures. Structures can show the parent of a compound that is named as a salt. Where two headings read alike, the source gives them in different places.

In the case of `COc1ccc(C2=NN(C3CCN(c4ccc5ncc([N+](=O)[O-])n5n4)CC3)C(=O)[C@H]3CC=CC[C@@H]23)cc1OC1CCCC1` (relative stereo) [Compound 12, cis-4-(3-(Cyclopentyloxy)-4-methoxyphenyl)-2-(1-(3-nitroimidazo[1,2-b]pyridazin-6-yl)piperidin-4-yl)-4a,5,8,8a-tetrahydrophthalazin-1(2H)-one], the IC50 in test [1] is 2.1 µM; in test [2] (setting [7]), greater than 64000 nM; in test [3], 2.2 µM; in test [4] it was 9.3 ± 0.6 nM; in test [5] (setting [8]), 3 ± 1.9 µM; in test [6] it was 25.9 ± 24.4 µM.
`COc1ccc(C2=NN(C3CCN(c4ccc5ncc([N+](=O)[O-])n5n4)CC3)C(=O)[C@H]3CC=CC[C@@H]23)cc1OCc1cccc([N+](=O)[O-])c1` (relative stereo) [Compound 13, cis-4-(4-Methoxy-3-((3-nitrobenzyl)oxy)phenyl)-2-(1-(3-nitroimidazo[1,2-b]pyridazin-6-yl)piperidin-4-yl)-4a,5,8,8a-tetrahydrophthalazin-1(2H)-one]: the IC50 in test [1] is greater than 64 µM; in test [2] (setting [7]), greater than 64000 nM; in test [3], greater than 64 µM; in test [4], 1.2 ± 0.4 nM; in test [5] (setting [8]), 1.6 ± 0.7 µM; in test [6], 32.5 µM.
Turning to `COc1cccc(COc2cc(C3=NN(C4CCN(c5ccc6ncc([N+](=O)[O-])n6n5)CC4)C(=O)[C@H]4CC=CC[C@@H]34)ccc2OC)c1` (relative stereo) [Compound 14, cis-4-(4-Methoxy-3-((3-methoxybenzyl)oxy)phenyl)-2-(1-(3-nitroimidazo[1,2-b]pyridazin-6-yl)piperidin-4-yl)-4a,5,8,8a-tetrahydrophthalazin-1(2H)-one], the IC50 was greater than 64 µM in test [1]; greater than 64000 nM in test [2] (setting [7]); 31.8 ± 12.1 µM in test [3]; 1 ± 0.5 nM in test [4]; 0.7 ± 0.5 µM in test [5] (setting [8]); 32.5 µM in test [6].
For the compound `COc1ccc(C2=NN(C3CCN(c4ccc5ncc([N+](=O)[O-])n5n4)CC3)C(=O)[C@H]3CC=CC[C@@H]23)cc1OCc1cccnc1` (relative stereo) [Compound 15, cis-4-(4-Methoxy-3-(pyridin-3-ylmethoxy)phenyl)-2-(1-(3-nitroimidazo[1,2-b]pyridazin-6-yl)piperidin-4-yl)-4a,5,8,8a-tetrahydrophthalazin-1(2H)-one], the IC50 amounted to 2.2 µM in test [1]; 14900 ± 11500 nM in test [2] (setting [9]); 15000 nM in test [2] (setting [7]); 2.1 µM in test [3]; 6.8 ± 1.5 nM in test [4]; 2.1 ± 0.8 µM in test [5] (setting [8]). In test [6], this compound yielded an IC50 of 8.1 µM.
As to `COc1ccccc1COc1cc(C2=NN(C3CCN(c4ccc5ncc([N+](=O)[O-])n5n4)CC3)C(=O)[C@H]3CC=CC[C@@H]23)ccc1OC` (relative stereo) [Compound 16, cis-4-(4-Methoxy-3-((2-methoxybenzyl)oxy)phenyl)-2-(1-(3-nitroimidazo[1,2-b]pyridazin-6-yl)piperidin-4-yl)-4a,5,8,8a-tetrahydrophthalazin-1(2H)-one], the half-inhibitory concentration (IC50) in test [1] came out at 1.4 ± 0.4 µM; in test [2] (setting [9]), 48900 ± 21400 nM; in test [2] (setting [7]), 49000 nM; in test [3], 11.2 ± 7.9 µM; in test [4], 2.8 ± 0.8 nM; in test [5] (setting [8]), 1.1 ± 0.5 µM. The compound also displayed an IC50 in test [6] of 30.6 ± 2.3 µM.
Take `COc1ccc(C2=NN(C3CCN(c4ccc5ncc([N+](=O)[O-])n5n4)CC3)C(=O)[C@H]3CC=CC[C@@H]23)cc1OCc1ccccn1` (relative stereo) [Compound 17, cis-4-(4-Methoxy-3-(pyridin-2-ylmethoxy)phenyl)-2-(1-(3-nitroimidazo[1,2-b]pyridazin-6-yl)piperidin-4-yl)-4a,5,8,8a-tetrahydrophthalazin-1(2H)-one]: the IC50 in test [1] was 4.92 ± 1.6 µM; in test [2] (setting [7]), greater than 64000 nM; in test [3], 2.1 ± 0.1 µM; in test [4], 0.5 ± 0.1 nM; in test [5] (setting [8]) it was 2.3 ± 1.4 µM; in test [6] it was 11.8 ± 7.5 µM. The “fold higher anti-Giardia activity than metronidazole” value in test [4] (versus metronidazole IC50 = 0.8 μM) is > 1,000 fold.
In the case of `CCN(CC)CCCC(C)Nc1ccnc2cc(Cl)ccc12` (centres unmarked) [Chloroquine, chloroquine, reference compound], the IC50 in test [5] (read-out: IC50 (µM) P.f.) came out at 0.1 ± 0.03 µM.
With `CN(C)c1ccc2ncc([N+](=O)[O-])n2n1` [Compound 21, N,N-Dimethyl-3-nitroimidazo[1,2-b]pyridazin-6-amine], the IC50 in test [1] is greater than 64 µM; in test [2] (setting [7]), greater than 64000 nM; in test [3], greater than 64 µM; in test [4] it was 22 ± 3 nM; in test [5] (setting [8]) it was greater than 64 µM; in test [6], greater than 64 µM.
`O=[N+]([O-])c1cnc2ccc(N3CCCC3)nn12` [Compound 22, 3-Nitro-6-(pyrrolidin-1-yl)imidazo[1,2-b]pyridazine]: the IC50 in test [1] is greater than 64 µM; in test [2] (setting [7]), greater than 64000 nM; in test [3], greater than 64 µM; in test [4], 2.3 ± 0.4 nM; in test [5] (setting [8]) it was greater than 64 µM; in test [6] it was greater than 64 µM.
In the case of `O=[N+]([O-])c1cnc2ccc(N3CCCCC3)nn12` [Compound 23, 3-Nitro-6-(piperidin-1-yl)imidazo[1,2-b]pyridazine], the IC50 in test [1] is greater than 64 µM; in test [2] (setting [7]), 28100 nM; in test [3], 32.3 ± 1.1 µM; in test [4], 3.6 ± 0.8 nM; in test [5] (setting [8]) it was greater than 64 µM; in test [6], greater than 64 µM.
Take `CN1CCN(c2ccc3ncc([N+](=O)[O-])n3n2)CC1` [Compound 24, 6-(4-Methylpiperazin-1-yl)-3-nitroimidazo[1,2-b]pyridazine formate]: the IC50 in test [1] was greater than 64 µM; in test [2] (setting [7]), greater than 64000 nM; in test [3], 33.5 ± 1.1 µM; in test [4], 144 ± 31 nM; in test [5] (setting [8]) it was greater than 64 µM; in test [6], greater than 64 µM.
Turning to `O=[N+]([O-])c1cnc2ccc(N3CCC(N4CCCC4)CC3)nn12` [Compound 25, 3-Nitro-6-(4-(pyrrolidin-1-yl)piperidin-1-yl)imidazo[1,2-b]pyridazine formate], the IC50 in test [1] is greater than 64 µM; in test [2] (setting [7]) it was greater than 64000 nM; in test [3], 39.9 ± 3.7 µM; in test [4], 5.8 ± 0.9 nM; in test [5] (setting [8]), greater than 64 µM; in test [6] it was greater than 64 µM.
`CCCCCCCCCCCCCCCCOP(=O)([O-])OCC[N+](C)(C)C` [Miltefosine, miltefosine, reference compound] had an IC50 in test [6] of 10.3 ± 1.3 µM.
For `Cc1ccc(C(=O)Nc2ccc(S(=O)(=O)O)c3cc(S(=O)(=O)O)cc(S(=O)(=O)O)c23)cc1NC(=O)c1cccc(NC(=O)Nc2cccc(C(=O)Nc3cc(C(=O)Nc4ccc(S(=O)(=O)O)c5cc(S(=O)(=O)O)cc(S(=O)(=O)O)c45)ccc3C)c2)c1` [Suramine, suramin, reference compound], in test [1], half-maximal inhibition (IC50) was put at 0.05 ± 0.02 µM.
For `O=C(Cn1ccnc1[N+](=O)[O-])NCc1ccccc1` [benznidazole, reference compound], in test [3], it took 2.5 ± 0.4 µM to reach half-maximal inhibition (IC50).
Turning to `Cc1ncc([N+](=O)[O-])n1CCO` [metronidazole, reference compound], the IC50 in test [4] worked out at 800 ± 100 nM.

The values above are taken from publication PMC9213561, “3-nitroimidazo[1,2-b]pyridazine as a novel scaffold for antiparasitics with sub-nanomolar anti-Giardia lamblia activity” (International Journal for Parasitology: Drugs and Drug …, 2022).
